Reference: patent publication US20230263770A1, “THERAPY OF POST-OPERATIVE NAUSEA AND VOMITING” (ACACIA PHARMA LTD, priority 2020, published 2023)
“Also recorded” adds a separate entry of the source.

Tests used:
[1] = system: adult surgical patients at moderate-to-high risk of suffering PONV; experiment: Phase II dose-ranging trial, IV amisulpride as PONV prophylaxis; type: in vivo, human; details: for incidence of PONV: prophylaxis
Experimental: In a multi-centre, double-blind, randomised, dose-ranging Phase II trial (conducted by the applicant), amisulpride was given intravenously to adult surgical patients at moderate-to-high risk of suffering PONV (prophylaxis), at doses of 1 mg, 5 mg and 20 mg, with a fourth group receiving placebo.

[2] = system: adult surgical patients at moderate-to-high risk of suffering PONV; experiment: Two Phase III placebo-controlled trials, PONV prophylaxis; type: in vivo, human; details: 5 mg, 626 evaluable patients, vs 59% placebo, p<0.01
[3] = system: adult surgical patients at high risk of suffering PONV; experiment: Phase III trial, amisulpride in combination with a standard anti-emetic, PONV prophylaxis; type: in vivo, human; details: 5 mg in combination with a standard anti-emetic, 1147 evaluable patients; vs 53% placebo combination, p<0.001
[4] = system: patients who had not received prior prophylaxis; experiment: Clinical trial, treatment of PONV in patients without prior prophylaxis; type: in vivo, human; details: doses of 5 mg and 10 mg; no difference between the doses
Experimental: In another clinical trial conducted by the applicant, amisulpride at doses of 5 mg and 10 mg were compared with placebo for the treatment of PONV, in patients who had not received prior prophylaxis.

[5] = system: patients having a high BMI (≥30); experiment: Study 1: prophylaxis of PONV in patients with a high BMI (complete response and secondary endpoints); type: in vivo, human; details: for CR (PONV) 0-2 hours / CR (PONV) 0-24 hours / CR (emesis) / CR (nausea) / CR (severe nausea): prophylactic therapy, 5 mg
Experimental: (§1) A randomised, double-blind, placebo-controlled study of amisulpride for IV injection as treatment against post-operative nausea and vomiting in patients having a high BMI (≥30) was conducted. The primary aim of the study was to compare the efficacy of 5 mg and 10 mg amisulpride to placebo as treatment or prevention of PONV, in patients with a high BMI.
(§2) The study was performed in adult patients (≥18 years) having a BMI ≥30 who were undergoing elective ambulatory (day-case) or in-patient surgery under general inhalational anaesthesia for an expected duration of at least one hour from induction of anaesthesia to extubation.
(§3) Amisulpride at a dose of 5 mg (prophylaxis) or 10 mg (rescue treatment) or matching placebo was given once by slow IV administration, over about 2 minutes.
(§4) The primary efficacy variable was the absence or presence of PONV during the 24-hour post-operative period, where PONV was defined as the occurrence of one or more emetic episodes (vomiting and/or retching) or the receipt of one or more doses of rescue anti-emetic medication in the 24 hours after wound closure (prophylaxis study) or dosing (treatment study). Absence of PONV by this definition was termed “Complete Response” (CR). A number of secondary variables were evaluated including the occurrence of emesis (vomiting and/or retching).
(§5) A comparison of the incidence of CR in the 0-2 and 0-24 hour periods after surgery between the amisulpride group and the placebo group using Pearson's X2 test with Yates's continuity correction at a one-sided significance level of 2.5%. The primary efficacy analysis population was the modified intent-to-treat (mITT) population.
Secondary efficacy variables assessed by incidence (e.g., emesis) were compared between the groups using Pearson's X2 test.

[6] = system: patients having a high BMI (≥30); experiment: Study 1: rescue treatment of PONV in patients with a high BMI; type: in vivo, human; details: for CR (PONV), rescue treatment: 10 mg
Experimental: as §1, §2, §3, §4, §5

[7] = system: patients with BMI ≥35; experiment: Study 1: treatment-emergent adverse events, prophylaxis in patients with BMI ≥35; type: in vivo, human
Experimental: as §1, §2, §3

[8] = system: bariatric surgery patients; experiment: Study 1: complete response in bariatric surgery patients (prophylaxis and rescue treatment); type: in vivo, human
Experimental: (§6) The present invention is based on the results of a Phase III study of amisulpride as prophylaxis against PONV in high-risk patients, conducted by the applicant. The Phase III study results include data from two randomized, double-blind, placebo-controlled, multi-centre Phase III trials of amisulpride, either as a prophylaxis, or rescue treatment for PONV.
as §3, §4

[9] = system: patients undergoing bariatric surgery; experiment: Study 1: treatment-emergent adverse events in patients undergoing bariatric surgery; type: in vivo, human; details: 5 mg prophylaxis or 10 mg rescue treatment, n = 53
Experimental: as §6, §3

[10] = system: patients having a high BMI (≥30); experiment: Study 1: prophylaxis of PONV in patients with a high BMI (complete response and secondary endpoints); type: in vivo, human; details: IV 5 mg + another antiemetic
[11] = compared to the (R+)-enantiomer; cited from earlier work
[12] = prophylaxis, IV 5 mg + another antiemetic, BMI ≥35, mITT, P 0.011
[13] = 5 mg prophylaxis, BMI ≥35, n = 149

**Q.** Which “incidence of PONV” value ([1]; 1 mg intravenously, p<0.05 vs placebo (69%)) does the source give for `CCN1CCCC1CNC(=O)c1cc(S(=O)(=O)CC)c(N)cc1OC` (racemic) [Amisulpride, amisulpride] here?
**A.** 48%

**Q.** And the “incidence of PONV” value ([1]; 5 mg intravenously, p<0.01 vs placebo (69%))?
**A.** 40%

**Q.** What about the “incidence of PONV compared to placebo” value ([1]; all amisulpride groups (1 mg, 5 mg and 20 mg)) of the same compound?
**A.** lower

**Q.** What about the “incidence of PONV” value [2] of the same compound?
**A.** 48%

**Q.** What about the “incidence of PONV” value [3] of the same compound?
**A.** 42%

**Q.** What about the “treating PONV compared to placebo” value [4] of the same compound?
**A.** significantly better than placebo

**Q.** What about the “CR (0-24 h), patients with CR/total” value ([5]; 5 mg prophylaxis, BMI ≥35, 42/129 for placebo) of the same compound?
**A.** 71/149

**Q.** What about the “secondary endpoints compared to placebo (FIGS. 1 and 2)” value ([5]; 5 mg prophylaxis, BMI ≥35, all secondary endpoints with the exception of emesis) of the same compound?
**A.** statistically significantly superior to placebo

**Q.** And the “preventing PONV at 24 hours compared to placebo” value ([5]; 5 mg prophylaxis, overall study population and particularly BMI ≥35 subgroup)?
**A.** more effective than placebo

**Q.** What about the “absolute risk reduction, amisulpride versus placebo” value ([5]; patients with BMI ≥35 (printed 235), 0-24 h) of the same compound?
**A.** 15.10

**Q.** What about the “absolute risk reduction, amisulpride versus placebo” value ([5]; patients with a BMI <35, 0-24 h) of the same compound?
**A.** 10.50

**Q.** What about the “relative risk reduction (RRR) of the incidence of PONV” value ([5]; patients with a high BMI (printed 230), compared to RRR of the overall risk of PONV) of the same compound?
**A.** much higher than expected

**Q.** And the “CR (PONV) 0-2 hours” value ([5]; BMI ≥30, 251 patients)?
**A.** 53.0%

**Q.** And the “CR (PONV) 0-24 hours” value ([5]; BMI ≥30, 251 patients)?
**A.** 53.0%

**Q.** And the “CR (emesis)” value ([5]; BMI ≥30, 251 patients)?
**A.** 12.6% (251 patients)

**Q.** What about the “CR (nausea)” value ([5]; BMI ≥30, 251 patients) of the same compound?
**A.** 55.0% (251 patients)

**Q.** What about the “CR (severe nausea)” value ([5]; BMI ≥30, 251 patients) of the same compound?
**A.** 41.8% (251 patients)

**Q.** What about the “CR (emesis)” value ([5]; BMI ≥35, 149 patients) of the same compound?
**A.** 14.8% (149 patients)

**Q.** What about the “CR (nausea)” value ([5]; BMI ≥35, 149 patients) of the same compound?
**A.** 58.4% (149 patients)

**Q.** What about the “CR (severe nausea)” value ([5]; BMI ≥35, 149 patients) of the same compound?
**A.** 45.0% (149 patients)

**Q.** And the “CR (PONV) 0-2 hours” value ([5]; BMI ≥35, 149 patients, p = 0.002)?
**A.** 73.8% (p = 0.002)

**Q.** And the “CR (PONV) 0-24 hours” value ([5]; BMI ≥35, 149 patients, p = 0.01)?
**A.** 47.7% (p = 0.01)

**Q.** What about the “CR (0-24 h)” value [5, 12] of the same compound?
**A.** (47.7%)

**Q.** What about the “CR (0-24 h), patients with CR/total” value [5, 12] of the same compound?
**A.** 71/149

**Q.** And the “preventing PONV compared to placebo” value ([5]; prophylaxis, patients with a high BMI)?
**A.** more effective than placebo

**Q.** What about the “safety and efficacy for prevention or treatment of PONV (overall conclusion)” value ([5]; single IV dose, patients with a high BMI and bariatric surgery population, post-hoc analysis) of the same compound?
**A.** safe and effective; also recorded: safe and efficacious

**Q.** And the “CR (PONV), rescue treatment” value ([6]; BMI ≥30, 251 patients)?
**A.** 46.6% (251 patients)

**Q.** And the “CR (PONV), rescue treatment” value ([6]; BMI ≥35, 149 patients)?
**A.** 51.7% (149 patients)

**Q.** And the “effectiveness as rescue treatment for PONV” value ([6]; dose of 10 mg, prior prophylaxis drug given, high (≥30) BMI and/or bariatric surgery patients)?
**A.** particularly effective

**Q.** What about the “CR rate, rescue treatment compared to placebo” value ([6]; patients with a high BMI) of the same compound?
**A.** higher

**Q.** What about the “Number of patients with any adverse event” value [7, 13] of the same compound?
**A.** 79 n

**Q.** What about the “Patients with any adverse event” value [7, 13] of the same compound?
**A.** (53) %

**Q.** What about the “incidence of any treatment-emergent adverse events (TEAE) or serious adverse events (SAE), amisulpride vs placebo” value ([7]; high BMI and bariatric subgroups) of the same compound?
**A.** No material difference

**Q.** What about the “complete response rate (after 24 hours) compared to placebo” value ([8]; bariatric surgery patients, amisulpride prophylaxis or rescue treatment) of the same compound?
**A.** higher

**Q.** What about the “complete response rate at 24 hours” value ([8]; bariatric surgery, amisulpride prophylaxis (5 mg), vs 7.3% placebo, P=0.16) of the same compound?
**A.** 18.2%

**Q.** And the “complete response rate at 24 hours” value ([8]; bariatric surgery, amisulpride rescue treatment (10 mg), vs 9.1% placebo, P=0.17)?
**A.** 25.0%

**Q.** What about the “complete response at 24 hours, patients/total” value ([8]; combined prophylaxis and rescue treatment bariatric subgroup, placebo 5/63) of the same compound?
**A.** 11/53

**Q.** And the “complete response rate at 24 hours” value ([8]; combined prophylaxis and rescue treatment bariatric subgroup, placebo 7.9%)?
**A.** 20.8%

**Q.** What about the “effectiveness for prophylaxis and rescue treatment of PONV in bariatric surgery patients vs other surgery types” value ([8]; human, in vivo) of the same compound?
**A.** as effective

**Q.** What about the “Number of patients with any adverse event” value [9] of the same compound?
**A.** 30 n

**Q.** And the “Patients with any adverse event” value [9]?
**A.** (57) %

**Q.** What about the “CR (0-24 h)” value ([10]; BMI <35, mITT, P 0.002) of the same compound?
**A.** (61.2%)

**Q.** What about the “CR (0-24 h), patients with CR/total” value ([10]; BMI <35, mITT, P 0.002) of the same compound?
**A.** 259/423

**Q.** And the “CR (0-24 h)” value ([10]; all patients, mITT, P <0.001)?
**A.** (57.7%)

**Q.** What about the “CR (0-24 h), patients with CR/total” value ([10]; all patients, mITT, P <0.001) of the same compound?
**A.** 330/572

**Q.** With `CCN1CCCC1CNC(=O)c1cc(S(=O)(=O)CC)c(N)cc1OC` (single isomer, unassigned) [(S−)-enantiomer, (S−)-amisulpride] as the compound, how does the “share of the therapeutic activity of amisulpride” value [11] read?
**A.** almost all of the therapeutic activity
